Test results from US20250179045A1, “LPAR1 ANTAGONISTS AND USES THEREOF” (Contineum Therapeutics, Inc., priority 2021, published 2025).

What follows are molecules tested against human LPA1 (Homo sapiens, UniProt Q92633) (assay: In vitro functional assay of lysophosphatidic acid receptor 1 activity (calcium flux)). Details: B103 cells stably expressing human LPA1; Fluo-4 NW calcium flux after lysophosphatidic acid (18:1) at EC80; compounds 100 pM to 10 μM; read-out: LPA1 IC50.
Assay type: cell-based
Method in brief: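 B103 cells stably expressing human LPA1 plated onto compound for 24 h at 37 °C, loaded with Fluo-4 NW dye, re-exposed to compound (30 min 37 °C plus 30 min room temp).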

Sequence of human LPA1 (Q92633 whole entry): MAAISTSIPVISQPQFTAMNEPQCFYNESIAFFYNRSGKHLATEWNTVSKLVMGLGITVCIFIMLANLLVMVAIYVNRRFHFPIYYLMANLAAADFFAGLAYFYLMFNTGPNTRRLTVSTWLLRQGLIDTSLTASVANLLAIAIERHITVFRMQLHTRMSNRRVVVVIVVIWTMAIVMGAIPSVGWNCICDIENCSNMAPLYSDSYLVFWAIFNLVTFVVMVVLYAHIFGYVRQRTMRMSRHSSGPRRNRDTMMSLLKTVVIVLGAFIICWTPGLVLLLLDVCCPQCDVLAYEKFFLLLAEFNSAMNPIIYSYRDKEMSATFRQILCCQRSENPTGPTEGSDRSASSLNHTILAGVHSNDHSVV

Row | Compound | IC50 [nM]
1 | COc1ccc(NC(=O)C2(c3ccccc3C(C)C)CC(=O)N(C)C2)c(OC(F)F)n1 (single isomer, unassigned) [Example 1, N-(2-(difluoromethoxy)-6-methoxypyridin-3-yl)-3-(2-isopropylphenyl)-1-methyl-5-oxopyrrolidine-3-carboxamide] | 10 to 100
2 | CC(C)c1ccccc1C1(C(=O)Nc2cnc(C(F)F)cc2OC(F)F)CC(=O)N(C)C1 (centres unmarked) [Example 4, N-(4-(difluoromethoxy)-6-(difluoromethyl)pyridin-3-yl)-3-(2-isopropylphenyl)-1-methyl-5-oxopyrrolidine-3-carboxamide] | 100 to 1000
3 | COc1ccc(NC(=O)C2(c3ccccc3C(C)C)CC(CO)C2)c(OC)n1 (centres unmarked) [Example 60, N-(2,6-dimethoxypyridin-3-yl)-3-(hydroxymethyl)-1-(2-isopropylphenyl)cyclobutane-1-carboxamide] | 10 to 100
4 | CC(C)c1ccccc1C1(C(=O)Nc2ncc(Cl)cc2OC(F)F)CC(O)(C(F)(F)C(=O)O)C1 (single isomer, unassigned) [Example 55-isomer A, 2-(3-((5-chloro-3-(difluoromethoxy)pyridin-2-yl)carbamoyl)-1-hydroxy-3-(2-isopropylphenyl)cyclobutyl)-2,2-difluoroacetic acid] | 10 to 100
5 | COc1ccc(NC(=O)C2(c3ccccc3C(C)C)CCC(S(N)(=O)=O)CC2)c(OC(F)F)n1 (centres unmarked) [Example 97, N-(2-(difluoromethoxy)-6-methoxypyridin-3-yl)-1-(2-isopropylphenyl)-4-sulfamoylcyclohexane-1-carboxamide] | 100 to 1000
6 | COc1ccc(NC(=O)C2(c3ccccc3C(C)C)COC2)c(OC)n1 [Example 18, N-(2,6-dimethoxypyridin-3-yl)-3-(2-isopropylphenyl)oxetane-3-carboxamide] | 100 to 1000
7 | Cc1cc(OC(F)F)c(NC(=O)C2(c3ccccc3C(C)C)CC(O)(C(F)(F)C(=O)O)C2)cn1 (single isomer, unassigned) [Example 94-isomer A, 2-(3-((4-(difluoromethoxy)-6-methylpyridin-3-yl)carbamoyl)-1-hydroxy-3-(2-isopropylphenyl)cyclobutyl)-2,2-difluoroacetic acid] | 100 to 1000
8 | COc1cc(Cl)cnc1NC(=O)C1(c2ccccc2C(C)C)COC1 [Example 20, N-(5-chloro-3-methoxypyridin-2-yl)-3-(2-isopropylphenyl)oxetane-3-carboxamide] | > 1000
9 | COc1cc(Cl)ncc1NC(=O)C1(c2ccccc2C(C)C)CC(O)(C(F)(F)C(=O)O)C1 (centres unmarked) [Example 56, 2-(3-((6-chloro-4-methoxypyridin-3-yl)carbamoyl)-1-hydroxy-3-(2-isopropylphenyl)cyclobutyl)-2,2-difluoroacetic acid] | 10 to 100
10 | CC(C)c1ccccc1C1(C(=O)Nc2ccc(Br)cc2OC(F)F)COC1 [Example 16, N-(4-bromo-2-(difluoromethoxy)phenyl)-3-(2-isopropylphenyl)oxetane-3-carboxamide] | < 10
11 | Cc1ccc(NC(=O)C2(c3ccccc3C(C)C)CC(=O)N(C)C2)c(OC(F)F)c1 (centres unmarked) [Example 110, N-(2-(difluoromethoxy)-4-methylphenyl)-3-(2-isopropylphenyl)-1-methyl-5-oxopyrrolidine-3-carboxamide] | 10 to 100
12 | CC(C)c1ccccc1C1(C(=O)Nc2ccc(F)cc2OC(F)F)CC(=O)N(C)C1 (centres unmarked) [Example 88, N-(2-(difluoromethoxy)-4-fluorophenyl)-3-(2-isopropylphenyl)-1-methyl-5-oxopyrrolidine-3-carboxamide] | 100 to 1000
13 | COc1ccc(NC(=O)C2(c3ccccc3C(C)C)CCC3(CC2)NC(=O)NC3=O)c(OC(F)F)n1 (mixture of isomers) [Example 86, N-(2-(difluoromethoxy)-6-methoxypyridin-3-yl)-8-(2-isopropylphenyl)-2,4-dioxo-1,3-diazaspiro[4.5]decane-8-carboxamide] | 100 to 1000
14 | CC(C)c1ccccc1C1(C(=O)Nc2ccc(Cl)nc2OC(F)F)CNC(=O)C1 (centres unmarked) [Example 108, N-(6-chloro-2-(difluoromethoxy)pyridin-3-yl)-3-(2-isopropylphenyl)-5-oxopyrrolidine-3-carboxamide] | 10 to 100
15 | Cc1ccc(NC(=O)C2(c3ccccc3C(C)C)CNC(=O)C2)c(OC(F)F)c1 (centres unmarked) [Example 109, N-(2-(difluoromethoxy)-4-methylphenyl)-3-(2-isopropylphenyl)-5-oxopyrrolidine-3-carboxamide] | 10 to 100
16 | CC(C)c1ccccc1C1(C(=O)Nc2ncc(Cl)cc2OC(F)F)CC(CC(=O)O)C1 (centres unmarked) [Example 47, 2-(3-((5-chloro-3-(difluoromethoxy)pyridin-2-yl)carbamoyl)-3-(2-isopropylphenyl)cyclobutyl)acetic acid] | 10 to 100
17 | CC(C)c1ccccc1C1(C(=O)Nc2cnc(Cl)cc2OC2CC2)COC1 [Example 32, N-(6-chloro-4-cyclopropoxypyridin-3-yl)-3-(2-isopropylphenyl)oxetane-3-carboxamide] | 100 to 1000
18 | COc1ccc(NC(=O)C2(c3ccccc3C(C)C)CC(CC(=O)O)C2)c(OC(F)F)n1 (centres unmarked) [Example 46, 2-(3-((2-(difluoromethoxy)-6-methoxypyridin-3-yl)carbamoyl)-3-(2-isopropylphenyl)cyclobutyl)acetic acid] | < 10

Row | Compound | IC50 [nM]
19 | COc1nc(C)ccc1NC(=O)C1(c2ccccc2C(C)C)CNC(=O)C1 (centres unmarked) [Example 106, 3-(2-isopropylphenyl)-N-(2-methoxy-6-methylpyridin-3-yl)-5-oxopyrrolidine-3-carboxamide] | 100 to 1000
20 | Cc1ccc(NC(=O)C2(c3ccccc3C(C)C)CC(N(C)S(C)(=O)=O)C2)c(OC(F)F)n1 (centres unmarked) [Example 44, N-(2-(difluoromethoxy)-6-methylpyridin-3-yl)-1-(2-isopropylphenyl)-3-(N-methylmethylsulfonamido)cyclobutane-1-carboxamide] | 100 to 1000
21 | CC(C)c1ccccc1C1(C(=O)Nc2ncc(Cl)cc2OC(F)F)CNC(=O)C1 (centres unmarked) [Example 10, N-(5-chloro-3-(difluoromethoxy)pyridin-2-yl)-3-(2-isopropylphenyl)-5-oxopyrrolidine-3-carboxamide] | 10 to 100
22 | COc1cc(CF)ccc1NC(=O)C1(c2ccccc2C(C)C)CNC(=O)C1 (centres unmarked) [Example 115, N-(4-(fluoromethyl)-2-methoxyphenyl)-3-(2-isopropylphenyl)-5-oxopyrrolidine-3-carboxamide] | 100 to 1000
23 | CC(C)c1ccccc1C1(C(=O)Nc2cccnc2OC(F)F)CC(=O)N(C)C1 (centres unmarked) [Example 2, N-(2-(difluoromethoxy)pyridin-3-yl)-3-(2-isopropylphenyl)-1-methyl-5-oxopyrrolidine-3-carboxamide] | 100 to 1000
24 | CNS(=O)(=O)C1CC(C(=O)Nc2ccc(C)nc2OC(F)F)(c2ccccc2C(C)C)C1 (centres unmarked) [Example 70, N-(2-(difluoromethoxy)-6-methylpyridin-3-yl)-1-(2-isopropylphenyl)-3-(N-methylsulfamoyl)cyclobutane-1-carboxamide] | 10 to 100
25 | CC(C)c1ccccc1C1(C(=O)Nc2ccc(Br)cc2OC(F)F)CC(=O)N(C)C1 (centres unmarked) [Example 87, N-(4-bromo-2-(difluoromethoxy)phenyl)-3-(2-isopropylphenyl)-1-methyl-5-oxopyrrolidine-3-carboxamide] | 10 to 100
26 | COc1ccc(NC(=O)C2(c3ccccc3C(C)C)CC(O)(C(F)(F)C(=O)O)C2)c(OC(F)F)n1 (single isomer, unassigned) [Example 54-isomer B, 2-(3-((2-(difluoromethoxy)-6-methoxypyridin-3-yl)carbamoyl)-1-hydroxy-3-(2-isopropylphenyl)cyclobutyl)-2,2-difluoroacetic acid] | 10 to 100
27 | COc1cc(Cl)ncc1NC(=O)C1(c2ccccc2C(C)C)COC1 [Example 19, N-(6-chloro-4-methoxypyridin-3-yl)-3-(2-isopropylphenyl)oxetane-3-carboxamide] | 10 to 100
28 | Cc1ccc(NC(=O)C2(c3ccccc3C(C)C)CC(NC3CC3)C2)c(OC(F)F)n1 (single isomer, unassigned) [Example 40-isomer A, 3-(cyclopropylamino)-N-(2-(difluoromethoxy)-6-methylpyridin-3-yl)-1-(2-isopropylphenyl)cyclobutane-1-carboxamide] | 100 to 1000
29 | COc1ccc(NC(=O)[C@]2(c3ccccc3C(C)C)C[C@H](CC(N)=O)C2)c(OC(F)F)n1 [Example 117, cis-3-(2-amino-2-oxoethyl)-N-(2-(difluoromethoxy)-6-methoxypyridin-3-yl)-1-(2-isopropylphenyl)cyclobutane-1-carboxamide] | 10 to 100
30 | COc1cc(Br)ccc1NC(=O)C1(c2ccccc2C(C)C)CNC(=O)C1 (centres unmarked) [Example 104, N-(4-bromo-2-methoxyphenyl)-3-(2-isopropylphenyl)-5-oxopyrrolidine-3-carboxamide] | 10 to 100
31 | Cc1ccc(NC(=O)C2(c3ccccc3C(C)C)CNC(=O)C2)c(OC(F)F)n1 (centres unmarked) [Example 9, N-(2-(difluoromethoxy)-6-methylpyridin-3-yl)-3-(2-isopropylphenyl)-5-oxopyrrolidine-3-carboxamide] | 10 to 100
32 | COc1ccc(NC(=O)C2(c3ccccc3C(C)C)CNC(=O)C2)c(OC(F)F)n1 (single isomer, unassigned) [Example 8, N-(2-(difluoromethoxy)-6-methoxypyridin-3-yl)-3-(2-isopropylphenyl)-5-oxopyrrolidine-3-carboxamide] | < 10
33 | Cc1ccc(NC(=O)C2(c3ccccc3C(C)C)CC(F)C2)c(OC(F)F)n1 (centres unmarked) [Example 62, N-(2-(difluoromethoxy)-6-methylpyridin-3-yl)-3-fluoro-1-(2-isopropylphenyl)cyclobutane-1-carboxamide] | 100 to 1000
34 | Cc1ccc(NC(=O)C2(c3ccccc3C(C)C)CCC2)c(OC(F)F)n1 [Example 73, N-(2-(difluoromethoxy)-6-methylpyridin-3-yl)-1-(2-isopropylphenyl)cyclobutane-1-carboxamide] | > 1000
35 | Cc1ccc(NC(=O)C2(c3ccccc3C(C)C)CC(N3CCC3)C2)c(OC(F)F)n1 (centres unmarked) [Example 41, 3-(azetidin-1-yl)-N-(2-(difluoromethoxy)-6-methylpyridin-3-yl)-1-(2-isopropylphenyl)cyclobutane-1-carboxamide] | > 1000
